Values quoted from earlier work in patent US20090060993A1, “SOLID PHARMACEUTICAL COMPOSITION FOR ENHANCED DELIVERY OF COENZYME Q-10 AND UBIQUINONES” (priority 2007, published 2009).

Details: humans

total absorption: less than 10%
Structure (SMILES): COC1=C(OC)C(=O)C(C/C=C(\C)CC/C=C(\C)CC/C=C(\C)CC/C=C(\C)CC/C=C(\C)CC/C=C(\C)CC/C=C(\C)CC/C=C(\C)CC/C=C(\C)CCC=C(C)C)=C(C)C1=O [coenzyme Q-10, ubidecarenone]
